These results are taken from ChEMBL document CHEMBL2157925, “Design, synthesis, and bioevaluation of benzamides: novel acetylcholinesterase inhibitors with multi-functions on butylcholinesterase, Aβ aggregation, and β-secretase” (Bioorg Med Chem, 2012).

SMILES strings stand for the structures.

Among the targets are Beta-secretase 1 (Homo sapiens, UniProt P56817); Cholinesterase (Homo sapiens, UniProt P06276); Acetylcholinesterase (Homo sapiens, UniProt P22303).

Chain of Cholinesterase (P06276 whole entry): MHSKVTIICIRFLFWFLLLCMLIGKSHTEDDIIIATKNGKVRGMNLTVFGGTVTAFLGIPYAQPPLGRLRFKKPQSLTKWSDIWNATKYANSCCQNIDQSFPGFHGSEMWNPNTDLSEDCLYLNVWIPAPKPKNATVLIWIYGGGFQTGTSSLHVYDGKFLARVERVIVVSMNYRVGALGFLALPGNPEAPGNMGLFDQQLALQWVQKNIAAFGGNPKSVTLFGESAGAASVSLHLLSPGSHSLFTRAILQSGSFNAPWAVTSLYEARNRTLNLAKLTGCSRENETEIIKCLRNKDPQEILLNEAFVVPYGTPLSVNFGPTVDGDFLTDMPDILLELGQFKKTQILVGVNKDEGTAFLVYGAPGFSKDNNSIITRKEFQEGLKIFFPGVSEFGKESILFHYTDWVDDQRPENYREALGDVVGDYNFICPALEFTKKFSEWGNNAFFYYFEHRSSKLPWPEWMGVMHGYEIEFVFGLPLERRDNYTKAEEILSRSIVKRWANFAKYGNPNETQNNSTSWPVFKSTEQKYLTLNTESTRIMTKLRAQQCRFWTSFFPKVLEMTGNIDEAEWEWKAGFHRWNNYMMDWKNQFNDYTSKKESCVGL
Chain of Acetylcholinesterase (P22303 whole entry): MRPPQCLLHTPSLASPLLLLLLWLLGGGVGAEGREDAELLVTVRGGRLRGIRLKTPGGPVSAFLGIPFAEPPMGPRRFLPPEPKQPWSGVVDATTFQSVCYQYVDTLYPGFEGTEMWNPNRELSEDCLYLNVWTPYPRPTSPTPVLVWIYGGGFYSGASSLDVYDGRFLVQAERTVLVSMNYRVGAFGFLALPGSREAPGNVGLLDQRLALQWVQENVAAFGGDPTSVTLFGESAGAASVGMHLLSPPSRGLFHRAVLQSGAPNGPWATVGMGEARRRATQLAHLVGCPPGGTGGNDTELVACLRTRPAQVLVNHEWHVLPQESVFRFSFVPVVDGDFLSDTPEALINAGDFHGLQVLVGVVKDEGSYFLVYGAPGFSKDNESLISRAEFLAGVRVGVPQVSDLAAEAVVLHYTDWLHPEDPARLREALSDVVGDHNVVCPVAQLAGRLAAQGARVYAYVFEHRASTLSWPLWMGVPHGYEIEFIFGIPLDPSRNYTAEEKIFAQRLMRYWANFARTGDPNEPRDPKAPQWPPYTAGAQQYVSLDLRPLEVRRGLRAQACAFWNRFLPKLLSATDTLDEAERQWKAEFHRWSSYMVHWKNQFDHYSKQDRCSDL
Chain of Beta-secretase 1 (P56817 whole entry): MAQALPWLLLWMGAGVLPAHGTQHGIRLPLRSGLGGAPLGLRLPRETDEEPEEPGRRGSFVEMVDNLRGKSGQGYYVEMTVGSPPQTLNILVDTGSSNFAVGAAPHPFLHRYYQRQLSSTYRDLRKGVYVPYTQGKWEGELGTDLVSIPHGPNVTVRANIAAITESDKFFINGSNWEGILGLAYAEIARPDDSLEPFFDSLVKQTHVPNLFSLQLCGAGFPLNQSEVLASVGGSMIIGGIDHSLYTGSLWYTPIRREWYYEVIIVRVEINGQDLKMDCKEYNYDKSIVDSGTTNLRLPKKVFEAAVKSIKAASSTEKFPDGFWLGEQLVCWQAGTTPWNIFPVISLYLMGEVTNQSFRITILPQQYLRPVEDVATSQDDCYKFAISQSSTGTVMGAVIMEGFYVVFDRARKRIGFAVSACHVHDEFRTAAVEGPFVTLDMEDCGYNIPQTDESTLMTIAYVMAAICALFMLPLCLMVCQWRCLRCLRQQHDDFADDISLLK
Description for Acetylcholinesterase: Inhibition of human recombinant AChE using acetylthiocholine as substrate

For the compound `CC(=O)c1ccccc1NC(=O)c1ccc(OCCCCC[n+]2ccccc2)cc1`, at Beta-secretase 1, it took 310 nM to reach half-maximal inhibition (IC50). In addition, the Ki amounted to 93 nM at Cholinesterase and 81 nM at Acetylcholinesterase.

Regarding `O=C(NCCc1c[nH]c2ccccc12)c1ccc(OCCCCn2ccc3ccccc32)cc1`, the Ki at Acetylcholinesterase is > 10000 nM.

On to `CC(=O)c1ccccc1NC(=O)c1ccc(OCCCCCC[n+]2ccccc2)cc1`, for which the Ki on Cholinesterase worked out at 66 nM; on Acetylcholinesterase, 47 nM.

With `CN(C)c1cc[n+](CCCCOc2ccc(C(=O)NCCc3c[nH]c4ccccc34)cc2)cc1`, the Ki was 2360 nM at Cholinesterase and 198 nM on Acetylcholinesterase.

In the case of `CC(=O)c1ccccc1NC(=O)c1ccc(OCCCC[n+]2ccc3ccccc3c2)cc1`, the inhibition constant (Ki) on Cholinesterase was determined as 56 nM; on Acetylcholinesterase it was 45.8 nM.

In the case of `O=C(NCCc1c[nH]c2ccccc12)c1ccc(OCCCCOc2cccc3[nH]c4ccccc4c23)cc1`, on Acetylcholinesterase, the inhibition constant (Ki) is > 10000 nM.

On to `O=C(NCCc1c[nH]c2ccccc12)c1ccc(OCCCCOc2ccc(C(=O)c3ccccc3)cc2)cc1`, for which the Ki at Acetylcholinesterase is > 10000 nM.

Consider `O=C(NCCc1c[nH]c2ccccc12)c1ccc(OCCCCOc2cccc(C(=O)c3ccccc3)c2)cc1`, for which the Ki at Acetylcholinesterase was > 10000 nM.

In the case of `O=C(NCCc1c[nH]c2ccccc12)c1ccc(OCCCC[n+]2cccc3ccccc32)cc1`, the values for the Ki on Cholinesterase and at Acetylcholinesterase were 97 nM and 124 nM, respectively.

`O=C(NCCc1c[nH]c2ccccc12)c1ccc(OCCCCn2c3ccccc3c3ccccc32)cc1` gave a Ki on Acetylcholinesterase of 1440 nM.

Compound `CC(=O)c1ccccc1NC(=O)c1ccc(OCCCCC[n+]2cccc3ccccc32)cc1` yielded an IC50 at Beta-secretase 1 of 85000 nM. Besides, the Ki at Cholinesterase worked out at 55 nM; at Acetylcholinesterase it was 6.47 nM.

`CC(=O)c1ccccc1NC(=O)c1ccc(OCCCCC[n+]2ccc3ccccc3c2)cc1`: the 50% inhibitory concentration (IC50) against Beta-secretase 1 is > 100000 nM. Besides, the values for the inhibitory constant (Ki) on Cholinesterase and at Acetylcholinesterase were 82 nM and 44.7 nM, respectively.

`CC(=O)c1ccccc1NC(=O)c1ccc(OCCCC[n+]2cccc3ccccc32)cc1`: the inhibition constant (Ki) at Cholinesterase came to 166 nM; at Acetylcholinesterase, 53 nM.

As to `O=C(NCCc1c[nH]c2ccccc12)c1ccc(OCCCCOc2ccc3c(c2)C(=O)c2ccccc2-3)cc1`, the Ki on Acetylcholinesterase was > 10000 nM.

On to `CC(=O)c1ccccc1NC(=O)c1ccc(OCCCCCC[n+]2ccc3ccccc3c2)cc1`, for which the 50% inhibitory concentration (IC50) against Beta-secretase 1 is > 100000 nM. Further, the Ki is 99 nM on Cholinesterase and 9.4 nM at Acetylcholinesterase.

By IC50 is commonly meant the midpoint of a concentration-inhibition curve. Read a low IC50 as greater potency. The Ki is the dissociation constant of the complex between target and ligand, obtained from inhibition or displacement.
